Key:
[1] = In vitro plasma stability and plasma protein binding; assay type: in vitro ADME; details: mouse plasma, 37 °C, 24 h
Experimental: The in vitro plasma stability of [^64Cu]Cu-NOTA-TP-PSMA 1 was evaluated by incubating […] of the radiolabeled compound (in 250 μL PBS) with 250 μL of freshly collected mouse plasma at 37 °C for up to 24 h. At predefined time points, (1 h, 4 h and 24 h) plasma proteins were precipitated by adding ethanol (1:1, v/v) in two successive steps, followed by vortexing (1 min) and centrifugation at 7000 rpm for 10 min. The resulting supernatant was subjected to ultracentrifugation to ensure complete removal of particulate matter.
For assessment of in vitro stability, the clarified supernatant was analyzed by radio-instant thin-layer chromatography (radio-iTLC) on C18 silica gel plates, using 0.1 M sodium citrate buffer (pH 5.5) as the mobile phase. Radiodetection was performed using an Instant Imager system (BioScan, Washington, DC, USA). Free [^64Cu]Cu(OAc)2 and intact [^64Cu]Cu-NOTA-TP-PSMA served as controls to facilitate peak identification. Under these chromatographic conditions, the radiolabeled complex remained at the origin, while free copper migrated with the solvent front (Figure S5).
To quantify the extent of protein binding, radioactivity in both the protein pellet and the supernatant was measured using a dose calibrator. The percentage of protein-bound radioactivity was calculated by comparing the activity in the precipitated fraction relative to the total recovered activity. […]

[2] = system: HEK-293 cells; assay: Cellular uptake and internalization in HEK-293 cells; assay type: cell-based, human
[3] = system: HEK-293 cells; assay: Efflux (retention) study in HEK-293 cells; assay type: cell-based, human; details: Table S3 second part (HEK-293)
Experimental: Efflux studies were conducted by incubating the cells with the compound for an initial period of 1 h, after which the incubation medium was replaced with fresh, compound-free medium. The retained intracellular radioactivity was then measured at various time points up to 24 h and expressed as the percentage of retention relative to the 0-h time point, defined as the time immediately after medium replacement.

[4] = system: LNCaP cells; assay: Nuclear localization in LNCaP cells; assay type: cell-based
Experimental: (§1) To assess nuclear localization, LNCaP and HEK-293 cells were incubated with 1 MBq of [^64Cu]Cu-NOTA-TP-PSMA 1 for 24, 48, and 72 h. Nuclear extraction was performed following a previously established protocol. Following incubation, cells were lysed and fractionated using cytoskeletal buffer to isolate nuclear components. Nuclear and cytoplasmic radioactivity were measured using a HIDEX automatic gamma counter. Data were used to evaluate time-dependent nuclear accumulation of the tracer.

[5] = system: HEK-293 cells; assay: Nuclear localization in HEK-293 cells; assay type: cell-based, human
Experimental: as §1

[6] = system: LNCaP cells; assay type: cell-based; details: LNCaP, 24 h
Experimental: (§2) The cytotoxicity of compounds 1–3, ^natCu-NOTA-TP-PSMA, and cisplatin (platinum-based drug) were assessed with PrestoBlue, a resazurin-based method to assess mitochondrial function in LNCaP and HEK-293 cells at 24, 48, and 72 h. Effective concentration (EC50) values summarized in Table 3 were calculated from the dose–response curves of each compound (Figure S7).
(§3) Cytotoxicity was evaluated using a resazurin-based assay (PrestoBlue) in 96-well plates. LNCaP (15,000 cells/well) and HEK-293 (10,000 cells/well) were seeded and incubated for 72 h. Cells were then treated with serial dilutions of [^64Cu]Cu-NOTA-TP-PSMA and controls for 24, 48, or 72 h. After treatment, cells were rinsed with PBS and incubated with PrestoBlue reagent for 40 min. Fluorescence was measured at 570 nm (excitation) and 610 nm (emission). Background readings from blank wells were subtracted. Cell viability was calculated relative to untreated controls. IC50 values were determined using dose–response curves. Controls included [^64Cu]Cu-NOTA-TP, [^64Cu]Cu-NOTA-PSMA, ^natCu-NOTA-TP-PSMA, and cisplatin (0–500 µM in 0.9% saline). All assays were performed in triplicate and all data presented in Results are the average of three independent experiments. TP conjugates were dissolved in 1% DMSO and diluted in saline. Inhibitory concentration 50 (IC50) values were calculated to quantify the effectiveness of the compounds.

[7] = system: HEK-293 cells; assay: PrestoBlue cytotoxicity assay in HEK-293 cells; assay type: cell-based, human; details: consistently across time points; read-out: EC50 in HEK-293 cells
Experimental: as §2, §3

O=C(O)CC[C@H](NC(=O)N[C@@H](CCCCNC(=O)[C@@H](Cc1ccc2ccccc2c1)NC(=O)C1CCC(CNC(=O)C(CCCCNC(=O)c2cc3[n+]4c(c2)-c2cccc[n+]2[Pt-2]4([Cl])[n+]2ccccc2-3)NC(=O)COCCOCCNC(=O)CN2CCN3CCN(CC2)CC(=O)[O][64Cu][O]C(=O)C3)CC1)C(=O)O)C(=O)O (stereo partly shown) [[^64Cu]Cu-NOTA-TP-PSMA 1]
free 64Cu2+ in protein-free supernatant (radio-iTLC) [1]: no evidence of free ^64Cu^2+ | total radioactivity bound to plasma proteins [1]: approximately 91% | Internalization ([2]; HEK-293, 24 h): 7.6 ± 1.7 % CPM/10^6 cells | Uptake ([2]; HEK-293, 24 h): 8.30 ± 1.63 %CPM/10^6 cells | Internalization HEK-293 ([2]; Table S2, 1 h): 4.46 ± 6.12 %ID/10⁶ cells | Uptake HEK-293 ([2]; Table S2, 1 h): 3.15 ± 0.53 %ID/10⁶ cells | Internalization HEK-293 ([2]; Table S2, 2 h): 3.34 ± 1.41 %ID/10⁶ cells | Uptake HEK-293 ([2]; Table S2, 2 h): 3.78 ± 0.95 %ID/10⁶ cells | Internalization HEK-293 ([2]; Table S2, 4 h): 3.26 ± 0.44 %ID/10⁶ cells | Uptake HEK-293 ([2]; Table S2, 4 h): 5.27 ± 1.00 %ID/10⁶ cells | Internalization HEK-293 ([2]; Table S2, 20 h): 6.12 ± 0.88 %ID/10⁶ cells | Uptake HEK-293 ([2]; Table S2, 20 h): 8.00 ± 2.25 %ID/10⁶ cells | Internalization HEK-293 ([2]; Table S2, 24 h): 7.65 ± 1.67 %ID/10⁶ cells | Uptake HEK-293 ([2]; Table S2, 24 h): 8.30 ± 1.63 %ID/10⁶ cells | Retained activity ([3]; 0 h after medium replacement): 100 ± 0 %CPM/106 cells | Retained activity ([3]; 1 h): 97.8 ± 4.3 %CPM/106 cells | Retained activity ([3]; 2 h): 62.6 ± 18.6 %CPM/106 cells | Retained activity ([3]; 4 h): 41.5 ± 9.9 %CPM/106 cells | Retained activity ([3]; 24 h): 17.1 ± 1.9 %CPM/106 cells | nuclear uptake fold difference LNCaP vs HEK-293 ([4]; 24 h): 84 fold | nuclear uptake in LNCaP cells ([4]; 24 h): ~ 7 % CPM/10^6 cells | nuclear uptake fold difference LNCaP vs HEK-293 ([4]; 48 h): 36 fold | nuclear uptake fold difference LNCaP vs HEK-293 ([4]; 72 h): 1.8 fold | fold higher nuclear uptake than monomer 2 ([4]; LNCaP, 24 h): ~ 13 fold | fold higher nuclear uptake than monomer 3 ([4]; LNCaP, 24 h): ~ 16 fold | Nuclear uptake LNCaP ([4]; Table S4, 24 h): 6.96 ± 1.97 %ID/10⁶ cells | Nuclear uptake LNCaP ([4]; Table S4, 48 h): 5.66 ± 2.09 %ID/10⁶ cells | Nuclear uptake LNCaP ([4]; Table S4, 72 h): 1.53 ± 0.38 %ID/10⁶ cells | Nuclear uptake HEK-293 ([5]; Table S4, 24 h): 0.08 ± 0.05 %ID/10⁶ cells | Nuclear uptake HEK-293 ([5]; Table S4, 48 h): 0.15 ± 0.06 %ID/10⁶ cells | Nuclear uptake HEK-293 ([5]; Table S4, 72 h): 0.85 ± 0.84 %ID/10⁶ cells | fold more potent than monomer 2 [6]: ~ 5 fold | fold more potent than monomer 3 [6]: ~ 16 fold | EC50 [7]: > 0.25 µM

— paper PMC12692291, “Development and In Vitro Evaluation of [^64Cu]Cu-NOTA-TP-PSMA, a Novel Radiotheranostic Agent Against Prostate Cancer” (International Journal of Molecular Sciences, 2025)
